Measured values: patent US12590118B2, “Salt and crystal form of steroid derivative regulator” (Shanghai Hansoh Biomedical Co., Ltd., priority 2019, dated 2026)

molecular target: GABA-A receptor; test: 35S-TBPS binding assay (GABAA receptor binding ability assay); set-up: species or system Sprague-Dawley rat; conditions: rat cerebral cortex cell membrane, 5 μM GABA, 2 nM 35S-TBPS; read-out: IC50 on inhibiting the TBPS binding activity, 35S-TBPS bindng assay
Procedure: 1. The cerebral cortex of male Sprague-Dawley rat was isolated.
2. A pre-chilled 0.32 M sucrose solution (one tablet of protease inhibitor was added per 100 mL) was added to the cerebral cortex (the volume of sucrose solution was 10 times the volume of the cerebral cortex). The mixture was crushed with a 50 mL glass tissue homogenizer in batches and mixed well.
3. The mixture was centrifuged at 1,500 g, 4° C. for 10 minutes, and the supernatant was collected.
4. The mixture was centrifuged at 20,000 g, 4° C. for 30 minutes, and the supernatant was discarded.
5. The precipitate was resuspended with the pre-chilled phosphate buffer saline (PBS) (one tablet of protease inhibitor was added per 100 mL). An average of 4 mL of PBS was added per rat, and the mixture was mixed well with a glass tissue homogenizer.
6. The mixture was centrifuged at 10,000 g, 4° C. for 10 minutes, and the supernatant was discarded.
7. Steps 5 and 6 were repeated three times.
8. Finally, the precipitate was resuspended with 4 volumes of PBS. The resulting solution was dispensed, frozen in liquid nitrogen, and stored at −80° C.
9. The protein concentration was measured by the bicinchoninic acid (BCA) method.
1. 230 μL of PBS was added to each well of a well plate with 1.1 mL volume.
2. 60 μL of the cerebral cortex cell membrane (5 μg/μL) solution was added to each well, and the mixture was mixed well.
3. The test compound (3 μL per well) was added, and the plate was incubated at 25° C. for 5 minutes. The DMSO concentration was 1%. The initial compound concentration was […], and a
3-fold dilution in gradient was carried out to obtain a total of 8 gradients and 2 replicates. 1% DMSO was used as a negative control, and 10 μM P026-2 was used as a positive control.
4. GABA was added at a final concentration of 5 μM, and incubated at 25° C. for 5 minutes. 1 mM GABA solution was formulated, and 1.5 μL of the solution was added to each well.
5. 35S-TBPS was added at a final concentration of 2 nM. The concentration of isotope mother solution was 9.7 μM. After dilution with PBS for 100 times, 6 μL of the diluted isotope solution was added to each well.
6. The plate was incubated at 4° C. for 20 hours.
7. The FilterMate GF/C plate was pre-treated with 0.5% PEI, and incubated at 4° C. for 1 hour.
8. The FilterMate GF/C plate was washed with Universal Harvester twice, 50 mL PBS each time.
9. The reaction solution was transferred to the GF/C plate, and each well was washed 4 times with 900 μL of PBS.
10. The washed GF/C plate was placed at 55° C. and dried for 10 minutes.
11. 40 μL of scintillation solution was added to each well, and the CPM value was read with TopCount.
In the experiment, the CPM (counts per minute) value was read with TopCount. According to the readings of the High control (DMSO) and the Low control (10 μM of the positive compound) experimental groups, the % inhibition was calculated based on the following formula: % Inhibition=100×(CPMHigh control−CPMsample)/(CPMHigh control−CPMLow control)
The IC50 of the compound was calculated according to the following 4-parameter nonlinear logic formula: Y=Bottom+(Top−Bottom)/(1+10^((Log IC50−X)*HillSlope)),
wherein: • X represents the log of compound concentration, • Y represents the % Inhibition.
The effect of the compound of the present invention on the TBPS binding activity was determined by the above test, and the measured IC50 values are shown in Table 5.

Compared with C[C@@]1(O)CC[C@H]2[C@H](CC[C@@H]3[C@@H]2CC[C@@]2(C)[C@H]3[C@@H]3C[C@@H]3[C@@H]2C(=O)Cn2ccc(C(F)(F)F)n2)C1 [Example 4, 1-((2R,4aS,4bR,6aS,7S,7aS,8aR,8bR,8cR,10aR)-2-Hydroxy-2,6a-dimethyloctadecahydrocyclopropa[4,5]cyclopenta[1,2-a]phenanthren-7-yl)-2-(3-(trifluoromethyl)-1H-pyrazol-1-yl)ethan-1-one], C[C@@]1(O)CC[C@H]2[C@H](CC[C@@H]3[C@@H]2CC[C@@]2(C)[C@H]3[C@@H]3C[C@@H]3[C@@H]2C(=O)Cn2cc(F)cn2)C1 [Example 30, 2-(4-Fluoro-1H-pyrazol-1-yl)-1-((2R,4aS,4bR,6aS,7S,7aS,8aR,8bR,8cR,10aR)-2-hydroxy-2,6a-dimethyloctadecahydrocyclopropa[4,5]cyclopenta[1,2-a]phenanthren-7-yl)ethan-1-one] is 9.3-fold higher in IC50: 3.1 nM for the first, 28.7 nM for the second. The first is the more potent here.

C[C@@]1(O)CC[C@H]2[C@H](CC[C@@H]3[C@@H]2CC[C@@]2(C)[C@H]3[C@@H]3C[C@@H]3[C@@H]2C(=O)Cn2nccn2)C1 [Example 5, 1-((2R,4aS,4bR,6aS,7S,7aS,8aR,8bR,8cR,10aR)-2-Hydroxy-2,6a-dimethyloctadecahydrocyclopropa[4,5]cyclopenta[1,2-a]phenanthren-7-yl)-2-(2H-1,2,3-triazol-2-yl)ethan-1-one] and C[C@@]1(O)CC[C@H]2[C@H](CC[C@@H]3[C@@H]2CC[C@@]2(C)[C@H]3[C@@H]3C[C@@H]3[C@@H]2C(=O)Cn2ncnn2)C1 [Example 7, 1-((2R,4aS,4bR,6aS,7S,7aS,8aR,8bR,8cR,10aR)-2-Hydroxy-2,6a-dimethyloctadecahydrocyclopropa[4,5]cyclopenta[1,2-a]phenanthren-7-yl)-2-(2H-tetrazol-2-yl)ethan-1-one] are within 1.5-fold of each other in IC50: 14.7 nM for the first, 21.3 nM for the second.

C[C@@]1(O)CC[C@H]2[C@H](CC[C@@H]3[C@@H]2CC[C@@]2(C)[C@H]3[C@@H]3C[C@@H]3[C@@H]2C(=O)Cn2cc(Cl)cn2)C1 [Example 14, 2-(4-Chloro-1H-pyrazol-1-yl)-1-((2R,4aS,4bR,6aS,7S,7aS,8aR,8bR,8cR,10aR)-2-hydroxy-2,6a-dimethyloctadecahydrocyclopropa[4,5]cyclopenta[1,2-a]phenanthren-7-yl)ethan-1-one] and C[C@@H]1C[C@H](C(=O)Cn2cc(Cl)cn2)[C@@]2(C)CC[C@H]3[C@@H](CC[C@@H]4C[C@](C)(O)CC[C@@H]43)[C@H]12 [Example 68, 2-(4-Chloro-1H-pyrazol-1-yl)-1-((3R,5R,8R,9R,10S,13S,14S,15R,17S)-3-hydroxy-3,13,15-trimethylhexadecahydro-1H-cyclopenta[a]phenanthren-17-yl)ethan-1-one] are within 1.5-fold of each other in IC50: 6.4 nM for the first, 9.6 nM for the second.

C[C@@]1(O)CC[C@H]2[C@H](CC[C@@H]3[C@@H]2CC[C@@]2(C)[C@H]3[C@@H]3C[C@@H]3[C@@H]2C(=O)Cn2cc(C#N)c(C3CC3)n2)C1 [Example 24, 3-Cyclopropyl-1-(2-((2R,4aS,4bR,6aS,7S,7aS,8aR,8bR,8cR,10aR)-2-hydroxy-2,6a-dimethyloctadecahydrocyclopropa[4,5]cyclopenta[1,2-a]phenanthren-7-yl)-2-oxoethyl)-1H-pyrazole-4-carbonitrile] and Cc1nn(CC(=O)[C@H]2[C@H]3C[C@H]3[C@H]3[C@@H]4CC[C@@H]5C[C@](C)(O)CC[C@@H]5[C@H]4CC[C@@]32C)cc1C#N [Example 28, 1-(2-((2R,4aS,4bR,6aS,7S,7aS,8aR,8bR,8cR,10aR)-2-Hydroxy-2,6a-dimethyloctadecahydrocyclopropa[4,5]cyclopenta[1,2-a]phenanthren-7-yl)-2-oxoethyl)-3-methyl-1H-pyrazole-4-carbonitrile] are within 1.5-fold of each other in IC50: 18.3 nM for the first, 15.4 nM for the second.

Going from C[C@@]1(O)CC[C@H]2[C@H](CC[C@@H]3[C@@H]2CC[C@@]2(C)[C@H]3[C@@H]3C[C@@H]3[C@@H]2C(=O)Cn2ncc(C#N)c2C2CC2)C1 [Example 25, 5-Cyclopropyl-1-(2-((2R,4aS,4bR,6aS,7S,7aS,8aR,8bR,8cR,10aR)-2-hydroxy-2,6a-dimethyloctadecahydrocyclopropa[4,5]cyclopenta[1,2-a]phenanthren-7-yl)-2-oxoethyl)-1H-pyrazole-4-carbonitrile] to Cc1c(C#N)cnn1CC(=O)[C@H]1[C@H]2C[C@H]2[C@H]2[C@@H]3CC[C@@H]4C[C@](C)(O)CC[C@@H]4[C@H]3CC[C@@]21C [Example 29, 1-(2-((2R,4aS,4bR,6aS,7S,7aS,8aR,8bR,8cR,10aR)-2-Hydroxy-2,6a-dimethyloctadecahydrocyclopropa[4,5]cyclopenta[1,2-a]phenanthren-7-yl)-2-oxoethyl)-5-methyl-1H-pyrazole-4-carbonitrile], the IC50 falls from 28.1 nM to 15.4 nM (1.8-fold). The second is the more potent here.

CCOC(=O)c1cnn(CC(=O)[C@H]2[C@H]3C[C@H]3[C@H]3[C@@H]4CC[C@@H]5C[C@](C)(O)CC[C@@H]5[C@H]4CC[C@@]32C)c1 [Example 35, Ethyl 1-(2-((2R,4aS,4bR,6aS,7S,7aS,8aR,8bR,8cR,10aR)-2-hydroxy-2,6a-dimethyloctadecahydrocyclopropa[4,5]cyclopenta[1,2-a]phenanthren-7-yl)-2-oxoethyl)-1H-pyrazole-4-carboxylate] and C[C@@H]1C[C@H](C(=O)Cn2cc(C(F)(F)F)cn2)[C@@]2(C)CC[C@H]3[C@@H](CC[C@@H]4C[C@](C)(O)CC[C@@H]43)[C@H]12 [Example 39, 1-((3R,5R,8R,9R,10S,13S,14S,15R,17S)-3-Hydroxy-3,13,15-trimethylhexadecahydro-1H-cyclopenta[a]phenanthren-17-yl)-2-(4-(trifluoromethyl)-11H-pyrazol-1-yl)ethan-1-one] are within 1.5-fold of each other in IC50: 5 nM for the first, 6.2 nM for the second.

First: C[C@@H]1C[C@H](C(=O)Cn2ccnn2)[C@@]2(C)CC[C@H]3[C@@H](CC[C@@H]4C[C@](C)(O)CC[C@@H]43)[C@H]12 [Example 42, 1-((3R,5R,8R,9R,10S,13S,14S,15R,17S)-3-Hydroxy-3,13,15-trimethylhexadecahydro-1H-cyclopenta[a]phenanthren-17-yl)-2-(1H-1,2,3-triazol-1-yl)ethan-1-one]
Second: C[C@@H]1C[C@H](C(=O)Cn2ncnn2)[C@@]2(C)CC[C@H]3[C@@H](CC[C@@H]4C[C@](C)(O)CC[C@@H]43)[C@H]12 [Example 44, 1-((3R,5R,8R,9R,10S,13S,14S,15R,17S)-3-Hydroxy-3,13,15-trimethylhexadecahydro-1H-cyclopenta[a]phenanthren-17-yl)-2-(2H-tetrazol-2-yl)ethan-1-one]
The IC50 of the first is 4-fold higher: 24.6 nM for the first, 6.1 nM for the second. The second is the more potent here.

Cc1nnn(CC(=O)[C@H]2C[C@@H](C)[C@H]3[C@@H]4CC[C@@H]5C[C@](C)(O)CC[C@@H]5[C@H]4CC[C@@]32C)n1 [Example 43, 1-((3R,5R,8R,9R,10S,13S,14S,15R,17S)-3-Hydroxy-3,13,15-trimethylhexadecahydro-1H-cyclopenta[a]phenanthren-17-yl)-2-(5-methyl-2H-tetrazol-2-yl)ethan-1-one] and C[C@@H]1C[C@H](C(=O)Cn2cc(C#N)c(C3CC3)n2)[C@@]2(C)CC[C@H]3[C@@H](CC[C@@H]4C[C@](C)(O)CC[C@@H]43)[C@H]12 [Example 47, 3-Cyclopropyl-1-(2-((3R,5R,8R,9R,10S,13S,14S,15R,17S)-3-hydroxy-3,13,15-trimethylhexadecahydro-1H-cyclopenta[a]phenanthren-17-yl)-2-oxoethyl)-1H-pyrazole-4-carbonitrile] are within 1.5-fold of each other in IC50: 5.4 nM for the first, 7.6 nM for the second.
